Article PMC7830303, “Development of Antimicrobial Stapled Peptides Based on Magainin 2 Sequence” (Molecules, 2021)
≈ marks a conversion by molar mass, not a printed value. Bridge positions count the residues as written; N and C are the ends. Square brackets hold non-standard residues; d marks the D form. Peptide text beside a SMILES is read from it. * marks the point of attachment. Stearoyl = CCCCCCCCCCCCCCCCCC(=O)*; R8 = C=CCCCCCC[C@@](C)(N)C(=O)O; Lauroyl = CCCCCCCCCCCC(=O)*; S5 = C=CCCC[C@](C)(N)C(=O)O; Hexanoyl = CCCCCC(=O)*; Aib = CC(C)(N)C(=O)O

Assays:
Escherichia coli DH5α = assay type: cell-based; conditions: 16 h
Description: (§1) Selected bacterial strains were obtained from Biological Resource Center, NITE (NBRC; Tokyo, Japan). E. coli DH5α was purchased from BioDynamics Laboratory, Inc. (Tokyo, Japan). The antimicrobial activities of the peptides against the gram-positive S. aureus and gram-negative E. coli DH5α, P. aeruginosa, and MDRP were measured using standard broth microdilution method as previously described. Briefly, the bacteria were inoculated and grown overnight at 37 °C on agar media for other organisms i and then collected with liquid media for other organisms ii, according to Japanese Pharmacopoeia, 17th Edition. Each peptide was 2-fold serially diluted with an initial concentration of 500 μM to a final concentration of 1 μM using PBS. Then, 10 μL of the peptide solution was added to each well of a sterile 96-well plate. Subsequently, 90 μL of inoculation with 10^4 colony forming units (CFUs) per mL were added to each well, and the plate was incubated at 35 °C for 16 h.

Pseudomonas aeruginosa = assay type: cell-based; conditions: 16 h
Description: as §1

Staphylococcus aureus = assay type: cell-based; conditions: 16 h
Description: as §1

[1] = test system: multiple-drug resistant P. aeruginosa (MDRP); assay type: cell-based, Pseudomonas aeruginosa; conditions: multiple-drug resistant (MDRP, 16 h)
Description: as §1

digestive enzymes = conditions: cited from earlier work
Excerpt: Mag2 comprises cationic and hydrophobic amino acid residues and employs a helical structure […]. These properties are required for interaction with microbial membranes, and subsequent Mag2 insertions into membranes induce bacterial pore formation and ion efflux to exert their antimicrobial activity. The antimicrobial activity of AMPs targets the bacterial ...

[2] = pH 7.4

MIC, Gram Negative, E.c. (DH5α) (Escherichia coli DH5α) [µM] | MIC, Gram Negative, P.a. (Pseudomonas aeruginosa) [µM] | MIC, Gram Positive, S.a. (Staphylococcus aureus) [µM] | MIC, Gram Negative, MDRP [1] [µM] | Solubility in the aqueous buffer solution [2] | Structure (SMILES) | Resistance against digestive enzymes (digestive enzymes)
1.56 (≈ 3.19 µg/mL) | 6.25 (≈ 12.8 µg/mL) | 12.5 (≈ 25.6 µg/mL) | 3.125 (≈ 6.4 µg/mL) |  | CC[C@H](C)[C@H](NC(=O)CN)C(=O)N[C@@H](CCCCN)C(=O)N[C@@H](CCCCN)C(=O)N[C@@H](Cc1ccccc1)C(=O)N[C@@H](CC(C)C)C(=O)N[C@@H](CCCCN)C(=O)N[C@@H](CO)C(=O)N[C@@]1(C)CCCC=CCCC[C@@](C)(C(=O)N[C@@H](CCCCN)C(=O)N[C@@H](C)C(=O)N[C@@H](Cc2ccccc2)C(=O)N[C@@H](CCCCN)C(N)=O)NC(=O)[C@H](Cc2ccccc2)NC(=O)[C@H](CCCCN)NC(=O)[C@H](CCCCN)NC1=O [Peptide 5] (H-GIKKFLKS[S5]KKF[S5]KAFK-NH2; staple 9-13) | 
3.125 (≈ 6.14 µg/mL) | 3.125 (≈ 6.14 µg/mL) | 25 (≈ 49.1 µg/mL) | 1.56 (≈ 3.07 µg/mL) |  | CC[C@H](C)[C@H](NC(=O)CN)C(=O)N[C@@H](CCCCN)C(=O)N[C@@H](CCCCN)C(=O)N[C@]1(C)CCCCCCC=CCCC[C@@](C)(C(=O)N[C@H](C(=O)N[C@@H](CCCCN)C(=O)N[C@@H](C)C(=O)N[C@@H](Cc2ccccc2)C(=O)N[C@@H](CCCCN)C(N)=O)C(C)C)NC(=O)[C@H](CCCCN)NC(=O)[C@H](CCCCN)NC(=O)[C@H](C)NC(=O)[C@H](CO)NC(=O)[C@H](CCCCN)NC(=O)[C@H](CC(C)C)NC1=O [Peptide 7] (H-GIKK[R8]LKSAKK[S5]VKAFK-NH2; staple 5-12) | 
6.25 (≈ 13.1 µg/mL) | >50 | >50 | 3.125 (≈ 6.57 µg/mL) |  | CC[C@H](C)[C@H](NC(=O)CN)C(=O)N[C@@H](CCCCN)C(=O)N[C@@H](CCCCN)C(=O)N[C@@H](Cc1ccccc1)C(=O)N[C@@H](CC(C)C)C(=O)N[C@@H](CCCCN)C(=O)N[C@]1(C)CCCCCCC=CCCC[C@@](C)(C(=O)N[C@@H](Cc2ccccc2)C(=O)N[C@@H](CCCCN)C(N)=O)NC(=O)[C@H](CCCCN)NC(=O)[C@H](C(C)C)NC(=O)[C@H](Cc2ccccc2)NC(=O)[C@H](CCCCN)NC(=O)[C@H](CCCCN)NC(=O)[C@H](C)NC1=O [Peptide 8] (H-GIKKFLK[R8]AKKFVK[S5]FK-NH2; staple 8-15) | 
3.125 (≈ 6.38 µg/mL) | 6.25 (≈ 12.8 µg/mL) | 6.25 (≈ 12.8 µg/mL) | 3.125 (≈ 6.38 µg/mL) |  | CC[C@H](C)[C@H](NC(=O)CN)C(=O)N[C@@H](CCCCN)C(=O)N[C@@H](CCCCN)C(=O)N[C@@H](Cc1ccccc1)C(=O)N[C@@H](CC(C)C)C(=O)N[C@@H](CCCCN)C(=O)N[C@@H](CO)C(=O)N[C@]1(C)CCCCCCC=CCCC[C@@](C)(C(=O)N[C@@H](CCCCN)C(N)=O)NC(=O)[C@H](C)NC(=O)[C@H](CCCCN)NC(=O)[C@H](C(C)C)NC(=O)[C@H](Cc2ccccc2)NC(=O)[C@H](CCCCN)NC(=O)[C@H](CCCCN)NC1=O [Peptide 9] (H-GIKKFLKS[R8]KKFVKA[S5]K-NH2; staple 9-16) | 

The remaining lines, values behind:

Structure (SMILES) | MIC, Gram Negative, E.c. (DH5α) (Escherichia coli DH5α) [µM] | MIC, Gram Negative, P.a. (Pseudomonas aeruginosa) [µM] | MIC, Gram Positive, S.a. (Staphylococcus aureus) [µM] | MIC, Gram Negative, MDRP [1] [µM] | Solubility in the aqueous buffer solution [2] | Resistance against digestive enzymes (digestive enzymes)
CC[C@H](C)[C@H](NC(=O)CN)C(=O)N[C@@H](CCCCN)C(=O)N[C@@H](CCCCN)C(=O)N[C@@H](Cc1ccccc1)C(=O)N[C@@H](CC(C)C)C(=O)N[C@@H](CCCCN)C(=O)N[C@@H](CO)C(=O)NC(C)(C)C(=O)N[C@@H](CCCCN)C(=O)N[C@@H](CCCCN)C(=O)N[C@@H](Cc1ccccc1)C(=O)N[C@H](C(=O)N[C@@H](CCCCN)C(=O)NC(C)(C)C(=O)N[C@@H](Cc1ccccc1)C(=O)N[C@@H](CCCCN)C(N)=O)C(C)C [Peptide 1, reference compound] (H-GIKKFLKS[Aib]KKFVK[Aib]FK-NH2) | 3.125 (≈ 6.24 µg/mL) | 3.125 (≈ 6.24 µg/mL) | 12.5 (≈ 24.9 µg/mL) | 3.125 (≈ 6.24 µg/mL) |  | showed resistance against digestive enzymes
CC[C@H](C)[C@@H]1NC(=O)[C@@](C)(N)CCCC=CCCC[C@@](C)(C(=O)N[C@@H](CC(C)C)C(=O)N[C@@H](CCCCN)C(=O)N[C@@H](CO)C(=O)N[C@@H](C)C(=O)N[C@@H](CCCCN)C(=O)N[C@@H](CCCCN)C(=O)N[C@@H](Cc2ccccc2)C(=O)N[C@H](C(=O)N[C@@H](CCCCN)C(=O)N[C@@H](C)C(=O)N[C@@H](Cc2ccccc2)C(=O)N[C@@H](CCCCN)C(N)=O)C(C)C)NC(=O)[C@H](CCCCN)NC(=O)[C@H](CCCCN)NC1=O [Peptide 2] (H-[S5]IKK[S5]LKSAKKFVKAFK-NH2; staple 1-5) | 1.56 (≈ 3.14 µg/mL) | 1.56 (≈ 3.14 µg/mL) | 3.125 (≈ 6.29 µg/mL) | 1.56 (≈ 3.14 µg/mL) |  | 
CC[C@H](C)[C@H](NC(=O)CN)C(=O)N[C@@H](CCCCN)C(=O)N[C@@H](CCCCN)C(=O)N[C@@]1(C)CCCC=CCCC[C@@](C)(C(=O)N[C@@H](CCCCN)C(=O)N[C@@H](CCCCN)C(=O)N[C@@H](Cc2ccccc2)C(=O)N[C@H](C(=O)N[C@@H](CCCCN)C(=O)N[C@@H](C)C(=O)N[C@@H](Cc2ccccc2)C(=O)N[C@@H](CCCCN)C(N)=O)C(C)C)NC(=O)[C@H](CO)NC(=O)[C@H](CCCCN)NC(=O)[C@H](CC(C)C)NC1=O [Peptide 3] (H-GIKK[S5]LKS[S5]KKFVKAFK-NH2; staple 5-9) | 1.56 (≈ 3.12 µg/mL) | 3.125 (≈ 6.25 µg/mL) | 3.125 (≈ 6.25 µg/mL) | 0.78 (≈ 1.56 µg/mL) |  | 
CC[C@H](C)[C@H](NC(=O)CN)C(=O)N[C@@H](CCCCN)C(=O)N[C@@H](CCCCN)C(=O)N[C@@H](Cc1ccccc1)C(=O)N[C@@H](CC(C)C)C(=O)N[C@@H](CCCCN)C(=O)N[C@@]1(C)CCCC=CCCC[C@@](C)(C(=O)N[C@H](C(=O)N[C@@H](CCCCN)C(=O)N[C@@H](C)C(=O)N[C@@H](Cc2ccccc2)C(=O)N[C@@H](CCCCN)C(N)=O)C(C)C)NC(=O)[C@H](CCCCN)NC(=O)[C@H](CCCCN)NC(=O)[C@H](C)NC1=O [Peptide 4] (H-GIKKFLK[S5]AKK[S5]VKAFK-NH2; staple 8-12) | 1.56 (≈ 3.09 µg/mL) | 1.56 (≈ 3.09 µg/mL) | 6.25 (≈ 12.4 µg/mL) | 0.78 (≈ 1.55 µg/mL) |  | 
CC[C@H](C)[C@H](NC(=O)CN)C(=O)N[C@@H](CCCCN)C(=O)N[C@@H](CCCCN)C(=O)N[C@@H](Cc1ccccc1)C(=O)N[C@@H](CC(C)C)C(=O)N[C@@H](CCCCN)C(=O)N[C@@H](CO)C(=O)N[C@@H](C)C(=O)N[C@@H](CCCCN)C(=O)N[C@@H](CCCCN)C(=O)N[C@@]1(C)CCCC=CCCC[C@@](C)(C(=O)N[C@@H](CCCCN)C(N)=O)NC(=O)[C@H](C)NC(=O)[C@H](CCCCN)NC(=O)[C@H](C(C)C)NC1=O [Peptide 6] (H-GIKKFLKSAKK[S5]VKA[S5]K-NH2; staple 12-16) | 1.56 (≈ 3 µg/mL) | 1.56 (≈ 3 µg/mL) | 3.125 (≈ 6.01 µg/mL) | 0.78 (≈ 1.5 µg/mL) |  | 
CCCCCC(=O)N[C@@]1(C)CCCC=CCCC[C@@](C)(C(=O)N[C@@H](CC(C)C)C(=O)N[C@@H](CCCCN)C(=O)N[C@@H](CO)C(=O)N[C@@H](C)C(=O)N[C@@H](CCCCN)C(=O)N[C@@H](CCCCN)C(=O)N[C@@H](Cc2ccccc2)C(=O)N[C@H](C(=O)N[C@@H](CCCCN)C(=O)N[C@@H](C)C(=O)N[C@@H](Cc2ccccc2)C(=O)N[C@@H](CCCCN)C(N)=O)C(C)C)NC(=O)[C@H](CCCCN)NC(=O)[C@H](CCCCN)NC(=O)[C@H]([C@@H](C)CC)NC1=O [Peptide C6-2] (Hexanoyl-[S5]IKK[S5]LKSAKKFVKAFK-NH2; staple 1-5) | 1.56 (≈ 3.29 µg/mL) | 3.125 (≈ 6.6 µg/mL) | 1.56 (≈ 3.29 µg/mL) | 3.125 (≈ 6.6 µg/mL) |  | 
CCCCCCCCCCCC(=O)N[C@@]1(C)CCCC=CCCC[C@@](C)(C(=O)N[C@@H](CC(C)C)C(=O)N[C@@H](CCCCN)C(=O)N[C@@H](CO)C(=O)N[C@@H](C)C(=O)N[C@@H](CCCCN)C(=O)N[C@@H](CCCCN)C(=O)N[C@@H](Cc2ccccc2)C(=O)N[C@H](C(=O)N[C@@H](CCCCN)C(=O)N[C@@H](C)C(=O)N[C@@H](Cc2ccccc2)C(=O)N[C@@H](CCCCN)C(N)=O)C(C)C)NC(=O)[C@H](CCCCN)NC(=O)[C@H](CCCCN)NC(=O)[C@H]([C@@H](C)CC)NC1=O [Peptide C12-2] (Lauroyl-[S5]IKK[S5]LKSAKKFVKAFK-NH2; staple 1-5) | 6.25 (≈ 13.7 µg/mL) | 12.5 (≈ 27.4 µg/mL) | 6.25 (≈ 13.7 µg/mL) | 25 (≈ 54.9 µg/mL) |  | 
CCCCCCCCCCCCCCCCCC(=O)N[C@@]1(C)CCCC=CCCC[C@@](C)(C(=O)N[C@@H](CC(C)C)C(=O)N[C@@H](CCCCN)C(=O)N[C@@H](CO)C(=O)N[C@@H](C)C(=O)N[C@@H](CCCCN)C(=O)N[C@@H](CCCCN)C(=O)N[C@@H](Cc2ccccc2)C(=O)N[C@H](C(=O)N[C@@H](CCCCN)C(=O)N[C@@H](C)C(=O)N[C@@H](Cc2ccccc2)C(=O)N[C@@H](CCCCN)C(N)=O)C(C)C)NC(=O)[C@H](CCCCN)NC(=O)[C@H](CCCCN)NC(=O)[C@H]([C@@H](C)CC)NC1=O [Peptide C18-2] (Stearoyl-[S5]IKK[S5]LKSAKKFVKAFK-NH2; staple 1-5) | >50 | >50 | >50 | >50 | poor solubility | 
